The values below come from patent publication US20260317320A1, “C5AR1 ANTAGONISTS AND USES THEREOF” (Vanqua Bio, Inc., priority 2022, published 2026).

Read-outs that look alike come from different tables or passages of the source.

Test [1] addresses T1, complement C5a receptor 1 (C5aR1) (Homo sapiens, UniProt P21730).
T1 construct: β-galactosidase fragment (PathHunter enzyme complementation); host or cells: CHO-K1 (PathHunter CHO-K1 C5aR1 β-arrestin cell line)
T1 sequence (P21730 1-350): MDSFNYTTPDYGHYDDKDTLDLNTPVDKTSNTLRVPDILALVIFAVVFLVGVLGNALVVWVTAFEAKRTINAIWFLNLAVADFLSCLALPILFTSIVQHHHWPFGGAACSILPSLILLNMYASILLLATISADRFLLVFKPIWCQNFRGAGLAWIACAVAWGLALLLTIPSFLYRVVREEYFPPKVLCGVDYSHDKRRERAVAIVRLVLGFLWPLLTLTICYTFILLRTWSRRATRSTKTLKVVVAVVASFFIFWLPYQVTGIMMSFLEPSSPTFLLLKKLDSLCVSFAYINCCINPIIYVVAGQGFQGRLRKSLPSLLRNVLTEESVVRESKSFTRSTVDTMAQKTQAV
Description: β-arrestin recruitment via C5aR1 activation in live CHO-K1 cells (PathHunter), antagonist mode. In kind it is cell-based. The conditions noted are these: antagonist mode; recombinant hC5a (EC90) as competing natural agonist; live CHO-K1 cells; read-out: [Antagonist] B-arrestin2 recruitment: Average IC50. The method, boiled down:
(§1)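 Live CHO-K1 cells carry two galactosidase enzyme fragments, one fused to β-arrestin and one to C5aR1, so that β-arrestin recruitment restores enzyme activity. Agonist mode tests compounds alone. Antagonist mode tests them against recombinant hC5a at EC90, and IC50 values are reported in binned ranges.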
A general note: Arrestin recruitment assays detect the binding of arrestin to an activated receptor.

Test [2] has as its target T1, complement C5a receptor 1 (C5aR1). Description: β-arrestin recruitment via C5aR1 activation in live CHO-K1 cells (PathHunter), agonist mode. In kind it is cell-based. The method, boiled down: as §1

One may read the IC50 as the concentration needed to halve the response being measured. With `O=c1c(C2CCN(c3ccccc3C(F)(F)F)CC2)cc2nccnc2n1Cc1ncccc1C(F)(F)F` [compound 38, 7-(1-(2-(Trifluoromethyl)phenyl)piperidin-4-yl)-5-((3-(trifluoromethyl)pyridin-2-yl)methyl)pyrido[2,3-b]pyrazin-6(5H)-one], the IC50 in test [1] was under 500 nM. The “[Agonist] B-arrestin2 recruitment: Average EC50 (nM)” value (“[Agonist] B-arrestin2 recruitment” for short) in test [2] is “Non-Active”.

For `Cc1ccc2nc(C3CCN(c4c(C)cccc4F)CC3)c(=O)n(Cc3ncccc3C(F)(F)F)c2c1` [142A, 3-(1-(2-Fluoro-6-methylphenyl)piperidin-4-yl)-7-methyl-1-((3-(trifluoromethyl)pyridin-2-yl)methyl)quinoxalin-2(1H)-one], the IC50 in test [1] was over 100000 nM. Besides, the “[Agonist] B-arrestin2 recruitment” value in test [2] is “Non-Active”.

For the molecule `Cc1cnc2cc([C@H]3CC[C@@H](c4cnccc4C(F)(F)F)CC3)c(=O)n(Cc3ncccc3C(F)(F)F)c2n1` [150A, 3-Methyl-5-((3-(trifluoromethyl)pyridin-2-yl)methyl)-7-((1s,4s)-4-(4-(trifluoromethyl)pyridin-3-yl)cyclohexyl)pyrido[2,3-b]pyrazin-6(5H)-one], the IC50 in test [1] is under 500 nM. Besides, the “[Agonist] B-arrestin2 recruitment” value in test [2] (at 10 μM) is “Non-Active at 10 μM”.

As for `Cc1cnc2cc([C@H]3CC[C@H](c4c(C)cccc4F)CC3)c(=O)n(Cc3ncccc3C3CC3)c2n1` [compound 220, 5-((3-Cyclopropylpyridin-2-yl)methyl)-7-((1r,4r)-4-(2-fluoro-6-methylphenyl)cyclohexyl)-3-methylpyrido[2,3-b]pyrazin-6(5H)-one], in test [1], the IC50 is under 500 nM. Besides, the “[Agonist] B-arrestin2 recruitment” value in test [2] (at 10 μM) is on record as “Non-Active at 10 μM”.

As to `Cc1ccc2cc([C@H]3CC[C@H](c4c(C)ccnc4F)CC3)c(=O)n(Cc3ncccc3C(F)(F)F)c2n1` [compound 262, 7-Methyl-3-[(1r,4r)-4-(2-fluoro-4-methyl-3-pyridyl)cyclohexyl]-1-{[3-(trifluoromethyl)-2-pyridyl]methyl}-1,8-diaza-2(1H)-naphthalenone], the IC50 in test [1] is under 500 nM. Besides, the “[Agonist] B-arrestin2 recruitment” value in test [2] is listed as “Non-Active”.

As for `Cc1cnc2cc([C@@H]3CC[C@@H](c4c(C)cccc4F)C3)c(=O)n(Cc3ncccc3C(F)F)c2n1` [187D, 5-((3-(Difluoromethyl)pyridin-2-yl)methyl)-7-((1R,3R)-3-(2-fluoro-6-methylphenyl)cyclopentyl)-3-methylpyrido[2,3-b]pyrazin-6(5H)-one], the IC50 in test [1] fell in the range of 500 to 5000 nM. Moreover, in test [2] (at 10 μM), the “[Agonist] B-arrestin2 recruitment” value is reported as “Non-Active at 10 μM”.

As for `O=c1c(C2CCN(c3cnccc3C(F)(F)F)CC2)cc2nccnc2n1Cc1ncccc1C(F)(F)F` [compound 60, 5-((3-(trifluoromethyl)pyridin-2-yl)methyl)-7-(1-(4-(trifluoromethyl)pyridin-3-yl)piperidin-4-yl)pyrido[2,3-b]pyrazin-6(5H)-one], the IC50 in test [1] is under 500 nM. In test [2], the “[Agonist] B-arrestin2 recruitment” value is “Non-Active”.

In the case of `Cc1c(N2CCC(c3cc4nccnc4n(Cc4ccccc4C(F)(F)F)c3=O)CC2)ccnc1F` [compound 29, 7-(1-(2-Fluoro-3-methylpyridin-4-yl)piperidin-4-yl)-5-(2-(trifluoromethyl)benzyl)pyrido-[2,3-b]pyrazin-6(5H)-one], the IC50 in test [1] was 5000 to 100000 nM. Moreover, in test [2], the “[Agonist] B-arrestin2 recruitment” value is “Non-Active”.

On to `Cc1cnc2cc(C3CCN(c4c(C)cccc4F)CC3)c(=O)n(Cc3nccnc3OC(F)F)c2n1` [compound 167, 5-((3-(Difluoromethoxy)pyrazin-2-yl)methyl)-7-(1-(2-fluoro-6-methylphenyl)piperidin-4-yl)-3-methylpyrido[2,3-b]pyrazin-6(5H)-one], for which, in test [1], the IC50 was under 500 nM. In test [2] (at 10 μM), the “[Agonist] B-arrestin2 recruitment” value is “Non-Active at 10 μM”.

For the molecule `Cc1ccc2cc([C@H]3CC[C@H](c4c(C)cccc4F)CC3)c(=O)n(Cc3nccnc3C(F)F)c2n1` [compound 210, 1-((3-(Difluoromethyl)pyrazin-2-yl)methyl)-3-((1r,4r)-4-(2-fluoro-6-methylphenyl)cyclohexyl)-7-methyl-1,8-naphthyridin-2(1H)-one], the IC50 in test [1] is under 500 nM. Besides, the “[Agonist] B-arrestin2 recruitment” value in test [2] (at 10 μM) is given as “Non-Active at 10 μM”.

For the molecule `Cc1ccc2cc([C@H]3CC[C@H](c4c(C)cccc4F)CC3)c(=O)n(Cc3nccnc3OCC(F)(F)F)c2n1` [compound 264, 7-Methyl-3-[(1r,4r)-4-(2-fluoro-6-tolyl)cyclohexyl]-1-{[3-(2,2,2-trifluoroethoxy)-2-pyrazinyl]methyl}-1,8-diaza-2(1H)-naphthalenone], the IC50 in test [1] was under 500 nM. For the same molecule, in test [2], the “[Agonist] B-arrestin2 recruitment” value is “Non-Active”.

Take `Cc1cnc2cc([C@H]3CC[C@H](c4c(C)cccc4F)CC3)c(=O)n(Cc3ccccc3C(F)(F)F)c2n1` [compound 224, 7-((1r,4r)-4-(2-Fluoro-6-methylphenyl)cyclohexyl)-3-methyl-5-(2-(trifluoromethyl)benzyl)pyrido[2,3-b]pyrazin-6(5H)-one]: the IC50 in test [1] was under 500 nM. Besides, the “[Agonist] B-arrestin2 recruitment” value in test [2] (at 10 μM) is reported as “Non-Active at 10 μM”.

Consider `Cc1cccc(F)c1N1CCC(c2cc3nccnc3n([C@@H]3CCCc4ccccc43)c2=O)CC1` [53a, (R)-7-(1-(2-Fluoro-6-methylphenyl)piperidin-4-yl)-5-(1,2,3,4-tetrahydronaphthalen-1-yl)pyrido[2,3-b]pyrazin-6(5H)-one], for which, in test [1], the IC50 fell in the range of 5000 to 100000 nM. In addition, in test [2], the “[Agonist] B-arrestin2 recruitment” value is “Non-Active”.

Turning to `Cc1cnc2cc([C@H]3CC[C@H](c4cnsc4C)CC3)c(=O)n(Cc3ncccc3OC(F)(F)F)c2n1` [compound 253, 3-Methyl-7-[(1r,4r)-4-(5-methyl-4-isothiazolyl)cyclohexyl]-5-[(3-trifluoromethoxy-2-pyridyl)methyl]-1,4,5-triaza-6(5H)-naphthalenone], the IC50 in test [1] was under 500 nM. The “[Agonist] B-arrestin2 recruitment” value in test [2] is given as “Non-Active”.

In the case of `Cc1cnc2cc([C@H]3CC[C@H](c4ncsc4C)CC3)c(=O)n(Cc3ncccc3C(F)(F)F)c2n1` [compound 163, 3-Methyl-7-((1r,4r)-4-(5-methylthiazol-4-yl)cyclohexyl)-5-((3-(trifluoromethyl)pyridin-2-yl)methyl)pyrido[2,3-b]pyrazin-6(5H)-one], the IC50 in test [1] is 500 to 5000 nM. Moreover, the “[Agonist] B-arrestin2 recruitment” value in test [2] (at 10 μM) is “Non-Active at 10 μM”.

As for `Cc1cccc(F)c1[C@H]1CC[C@H](c2cc3ncc(C(F)F)nc3n(Cc3ncccc3C(F)(F)F)c2=O)CC1` [compound 240, 3-(Difluoromethyl)-7-((1r,4r)-4-(2-fluoro-6-methylphenyl)cyclohexyl)-5-((3-(trifluoromethyl)pyridin-2-yl)methyl)pyrido[2,3-b]pyrazin-6(5H)-one], the half-inhibitory concentration (IC50) in test [1] was under 500 nM. Moreover, the “[Agonist] B-arrestin2 recruitment” value in test [2] is reported as “Non-Active”.

As for `Cc1cccc(F)c1N1CCC(c2cc3nccnc3n([C@@H]3CCc4nccnc43)c2=O)CC1` [160B, (R)-5-(6,7-Dihydro-5H-cyclopenta[b]pyrazin-5-yl)-7-(1-(2-fluoro-6-methylphenyl)piperidin-4-yl)pyrido[2,3-b]pyrazin-6(5H)-one], in test [1], the IC50 fell in the range of 5000 to 100000 nM. Moreover, the “[Agonist] B-arrestin2 recruitment” value in test [2] (at 10 μM) is given as “Non-Active at 10 μM”.

With `Cc1cccc(F)c1N1CCC(c2cc3nccnc3n(Cc3nccnc3C(F)(F)F)c2=O)CC1` [compound 12, 7-(1-(2-Fluoro-6-methylphenyl)piperidin-4-yl)-5-((3-(trifluoromethyl)pyrazin-2-yl)methyl)pyrido[2,3-b]pyrazin-6(5H)-one], in test [1], the IC50 was under 500 nM. Also, the “[Agonist] B-arrestin2 recruitment” value in test [2] is given as “Non-Active”.

As for `Cc1cnc2cc([C@H]3CC[C@H](c4c(C)cccc4F)CC3)c(=O)n(Cc3ncccc3CC(F)F)c2n1` [compound 232, 5-((3-(2,2-Difluoroethyl)pyridin-2-yl)methyl)-7-((1r,4r)-4-(2-fluoro-6-methylphenyl)cyclohexyl)-3-methylpyrido[2,3-b]pyrazin-6(5H)-one], the IC50 in test [1] was under 500 nM. The “[Agonist] B-arrestin2 recruitment” value in test [2] (at 10 μM) is given as “Non-Active at 10 μM”.

For `Cc1cnc2cc([C@H]3CC[C@H](c4c(F)cnc5c4cnn5C)CC3)c(=O)n(Cc3ncccc3C(F)(F)F)c2n1` [compound 266, 3-Methyl-7-[(1r,4r)-4-(5-fluoro-1-methyl-1H-1,2,7-triazainden-4-yl)cyclohexyl]-5-{[3-(trifluoromethyl)-2-pyridyl]methyl}-1,4,5-triaza-6(5H)-naphthalenone], in test [1], the IC50 lay in the range of 5000 to 100000 nM. In addition, the “[Agonist] B-arrestin2 recruitment” value in test [2] was “Non-Active”.

Take `Cc1cnc2cc([C@H]3CC[C@H](c4c(C)ccnc4F)CC3)c(=O)n(Cc3nccnc3C(F)F)c2n1` [146B, 5-((3-(Difluoromethyl)pyrazin-2-yl)methyl)-7-((1r,4r)-4-(2-fluoro-4-methylpyridin-3-yl)cyclohexyl)-3-methylpyrido[2,3-b]pyrazin-6(5H)-one]: the IC50 in test [1] was in the range of 500 to 5000 nM. The “[Agonist] B-arrestin2 recruitment” value in test [2] (at 10 μM) was “Non-Active at 10 μM”.
